The source of these data is patent publication EP4650362A1, “NEUROPROTECTIVE PSD-95 POLYPEPTIDE INHIBITOR AND USE THEREOF” (Beijing Tuo Jie Biopharmaceutical Co. Ltd., priority 2023, dated 2024).

One may read the EC50 as the midpoint of the concentration-response curve. By half-life is commonly meant the time needed for the level to fall by half in the phase considered. In general, AUC(0-t) refers to exposure summed from dosing to a finite time, without extrapolation to infinity. One may read the Cmax as the highest concentration seen after dosing.

In one series the target is T1, human PSD95-PDZ3 (Homo sapiens, UniProt P78352).
T1 construct: PDZ3 (309-401, Flag-His-Avitag-TEVsite tag); made in house
T1 sequence (P78352 309-401): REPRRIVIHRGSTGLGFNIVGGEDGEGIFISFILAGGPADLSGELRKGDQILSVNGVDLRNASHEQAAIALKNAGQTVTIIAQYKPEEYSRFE
The series can be described thus: binding ELISA with Biotin-PDZ3. In outline: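 Site-specifically biotinylated PSD95-PDZ2 or PDZ3 was used in a binding ELISA with HRP-streptavidin detection (1:2000, 37 °C, 1 h) and TMB, read at 450 nm. EC50 values were derived for binding to each domain to assess PDZ2 over PDZ3 selectivity.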
In general terms: In an ELISA, binding on a coated surface is turned into a signal by an enzyme label.

Series [1] relates to rat red blood cell suspensions. The series can be described thus: hemolysis risk test in rat whole blood. The format is cell-based. The settings on record: for Hemolysis rate (%): Rat, 37 °C 1 h. The text has this: Hemolysis refers to the phenomenon in which the membrane of erythrocytes is destroyed, along with increased transparency and a dark red appearance. Certain pharmaceutical ingredients, excipients, etc. may contain hemolytic components, which may cause hemolysis in the human body and cause adverse reactions such as local swelling and blood circulation dysfunction. On the basis of the principle that the hemoglobin released from lysed red blood cells has absorption in the visible light wave band, test compound solutions were added to rat red blood cell suspensions, and after incubation, the degrees of hemolysis were determined using a microplate reader.
(§1) This test example assessed whether a polypeptide compound causes hemolytic reactions in rat, rabbit, and human whole blood.
(§2) Preparation of red blood cell suspension: 100 µL of fresh whole blood was collected, and 900 µL of 1× PBS solution was then added. The mixture was shaken on a plate shaker at 30 rpm for 5 min and then centrifuged at 1000 g for 5 min, and the supernatant was discarded. The above washing step was repeated until the supernatant no longer appeared red. The suspension was set aside for later use.
(§3) Preparation of test polypeptide solutions: An appropriate amount of 1× PBS solution was added to a powdered polypeptide, and the polypeptide was dissolved to form a standard stock solution. […] Meanwhile, blank 1× PBS was used as a negative control, and a 1× PBS solution containing 0.1% Triton X-100 was used as a positive control.
(§4) Incubation: A test solution (500 µL) was added to the red blood cell suspension, and then the mixture was well shaken on a plate shaker at 30 rpm for 5 min, incubated at 37 °C for 1 h, and centrifuged at 1000 g for 5 min.
(§5) 100 µL of the supernatant was transferred to a single well of a microplate. The absorbance at 540 nm was measured using a SpectraMax M5 microplate reader, and data analysis was performed using GraphPad Prism 9. The hemolysis rate (%) was calculated using the formula: (test sample absorbance - negative control absorbance) / (positive control absorbance - negative control absorbance) × 100%. A rate of less than 5% indicates the absence of hemolysis, while a rate of greater than 5% indicates the presence of hemolysis. Table 3. Testing of the hemolysis risk of the polypeptide compound

The test system of the next series is human whole blood. Put plainly: hemolysis risk test in human whole blood. The format is cell-based. The settings on record: for Hemolysis rate (%): Human, 37 °C 1 h. On the procedure:
as §1, §2, §3, §4, §5

Series [2] can be described thus: pharmacokinetic study of different doses in rats. The settings on record: intravenous bolus injection, 3 nmol/g, n = 3. The format is in vivo, SD rats. As for the experimental part:
For example, at high doses, the agent causes symptoms such as tachycardia and blood pressure reduction due to excessive histamine release. Therefore, the pharmacokinetic profile of polypeptide compound 14 was assessed again using three doses: a high dose (3 nmol/g), a medium dose (1 nmol/g), and a low dose (0.3 nmol/g). […] Plasma concentration-time curves were plotted, and the pharmacokinetic parameters were calculated using WinNonlin software. Table 6. Intravenous bolus injection pharmacokinetic parameters in rats (different doses, n = 3)

A further series has as its system histamine release. Put plainly: ability to induce histamine release in beagle dogs (plasma). The format is in vivo. The settings on record: beagle dog plasma, 1.2 nmol/g. On the procedure:
With beagle dogs as test animals, the ability of a polypeptide compound administered via single intravenous infusion to induce histamine release in dogs (plasma) was studied.
This test was performed synchronously with Test Examples 3.9, with four animals per group and blood collection time points set as follows: before administration (0 h), and 2 min, 5 min, and 15 min after the end of intravenous infusion.
Sample analysis and data processing were performed with reference to the methods in 3.7.3. Table 10. Histamine levels at different time points

No end group written: not given here.

With “YGRKKRRQRRRKLSSIESDV [NA-1, YGRKKRRQR RRKLSSIESDV, reference compound]”, on human PSD95-PDZ3, the EC50 was above 1000 µM. The “Hemolysis rate (%)” value in series [1] (1.0 µM) is recorded as -0.12%; in series [1] (2.5 µM) it was 0.03%; in series [1] (5.0 µM), 0.50%; in series [1] (10 µM), 0.48%; in series [1] (25 µM), 0.34%; in series [1] (50 µM), -0.46%. Moreover, the “Hemolysis rate (%)” value in the series with human whole blood (1.0 µM) is listed as -0.52%; with human whole blood (2.5 µM), -0.59%; in the series with human whole blood (5.0 µM) it was -0.49%; in the series with human whole blood (10 µM) it was -0.54%; with human whole blood (25 µM) it was -0.53%; with human whole blood (50 µM), 0.06%. Besides, the hemolysis rates entry in series [1] (rat whole blood, concentration range of 1 to 50 µM) is on record as “less than 5%”; in the series with human whole blood (human whole blood, concentration range of 1 to 50 µM) it was “less than 5%”. This sequence also showed a half-life in series [2] (SD, rat, in vivo) of 2.1 min. Moreover, the “AUC(0-t)” value in series [2] (blood to 180 min) turned out to be 1149 ng·h/mL. Further, the “AUC(inf)” value in series [2] amounted to 1154 ng·h/mL. In series [2], this sequence showed a Cmax of 7188 ng/mL. The sequence further showed an MRTO-inf in series [2] of 7.5 min. In addition, the “Histamine levels (sums of detected histamine and 3-methylhistamine)” value with histamine release (0 min (before administration)) was 7.08±3.15; with histamine release (2 min after the end of intravenous infusion), 40.47±64.51; with histamine release (5 min after the end of intravenous infusion) it was 73.95±131.85; with histamine release (15 min after the end of intravenous infusion), 68.80±124.89.
